Source: patent US20230158153A1, “PI3 KINASE INHIBITORS AND USES THEREOF” (Purdue Research Foundation, priority 2020, published 2023)

Key:
PI3K [1] = assay: Western blot of Akt phosphorylation in TGFβ1-stimulated HLF cells; type: cell-based, human; design: inhibition of Akt phosphorylation on serine 473: dose or concentration left out as unconfirmed
Protocol: (§1) Lysates were collected and analyzed for the indicated proteins by Western blotting, wherein pAkt (S473) is phosphorylated protein kinase B, Akt is protein kinase B, Col.1 is collagen 1, αSMA is α-smooth muscle actin, pSMAD2 is phosphor-SMAD2 kinase, SMAD2 is mothers against decapentaplegic homolog 2, and GAPDH is glyceraldehyde 3-phosphate dehydrogenase.
(§2) To determine whether the nontargeted version of PI3Ki1 might enter human lung fibroblasts and inhibit PI3K activity, HLF-FAP cells were incubated for 24 h with either omipalisib or PI3Ki1 and then the impact on TGFβ1 stimulation, including phosphorylation of Akt, collagen synthesis, contraction of a collagen gel, and apoptosis of myofibroblasts were examined. […] Moreover, nontargeted PI3Ki1suppressed collagen synthesis with better potency than omipalisib, displaying an IC50˜10 nM (FIG. 4C).
(§3) Serum starved confluent HLF cells were co-incubated in medium containing 10 ng/ml TGFβ1 with or without the indicated concentrations of PI3K inhibitors for 24 hours. Cells were harvested and lysed for Western blot analysis. Following sodium dodecyl sulphate polyacrylamide gel electrophoresis and blocking, membranes were incubated with antibodies to detect pSMAD2 Ser465/467 (#3101, Cell Signalling Technology), or pAkt Ser473 (#4060, Cell signalling Technology), and signals were visualized with ECL Western Blot Detection Reagents (GE Healthcare). […]

[2] = system: TGFβ1-stimulated HLF cells; assay: Collagen synthesis (Col.1/GAPDH) in TGFβ1-stimulated HLF cells; type: cell-based; conditions: Homo sapiens, TGFβ1 10 ng/mL, 24 h, read-out: IC50 of suppression of collagen synthesis
Protocol: as §1, §2, §3

HLF = HLF contraction of a collagen gel; type: cell-based, human; conditions: 100 nM
Protocol: Data were analyzed using one-way ANOVA, followed by post-hoc Tukey test (n=3; *p<0.01).
as §2

HLF cells = assay: Caspase 3 and 7 activities in HLF cells (drug-induced apoptosis); type: cell-based
Protocol: The experiments in panels A-E have been reproduced three times, each with three independent samples, n=3).
as §2

PI3K [3] = assay: Western blot of Akt phosphorylation in TGFβ1-stimulated human IPF fibroblasts; type: cell-based; conditions: 3, 9, 27 or 81 min incubation
Protocol: After replacing the medium with inhibitor-free medium, the cells were cultured for an additional 22 hours, lysed with phosphatase inhibitor containing cell lysis solution, and analyzed for the indicated proteins by Western blotting (n=3).
After an additional 24-hour incubation, cells were lysed and the indicated proteins were analyzed by Western blotting (n=3).
Random/zed shRNA (shCTL) served as a control (n=2).
FIGS. 8A-8B are representative Western blots showing that FAP-targeted PI-3 Kinase inhibitor (FAPL-PI3Ki1) suppresses phosphorylation of Akt in IPF fibroblasts.
Firstly, primary lung fibroblasts from an IPF patient were stimulated for 24 h with TGFβ1 (to activate them to a FAP-expressing state) and then incubated for 2 h with increasing concentrations of FAPL-PI3Ki1, in the presence or absence of 100-fold excess FAPL to block unoccupied FAP sites.
Secondly, IPF lung fibroblasts were stimulated with TGFβ1 and then incubated for different durations with either FAPL-targeted or nontargeted PI3Ki1, followed by replacement of the culture media with inhibitor-free media (FIG. 7B and FIGS. 8A-8B). The anticipation was that FAP-targeted PI3Ki1 would be retained by FAP on FAP-expressing cells during short incubation times, whereas nontargeted PI3Ki1would not be captured by FAP and would subsequently be washed away when the media was changed. […]

IPF fibroblasts = assay: Molecular crowding assay for collagen in IPF fibroblasts; type: cell-based, human; conditions: 100 nM, 2 h, then inhibitor-free media with TGFβ1
Protocol: FIG. 7E and FIG. 7F show assay of collagen biosynthesis (green channel) using a molecular crowding assay (0.1% DMSO vehicle was constant for all experimental conditions). IPF fibroblasts were treated with 100 nM omipalisib, PI3Ki1 or FAPL-PI3Ki1for 2 hours, after which the media were removed and the fibroblasts were further stimulated for 48 h with media containing TGFβ1 (10 ng/mL). Cell counts were obtained from DAPI counterstaining (blue channel). Data were analyzed using one-way ANOVA, followed by post-hoc Tukey test (n=3; *p.-(0.05).
Next, the FAP-targeted PI-3 kinase inhibitors were tested to determine if they might suppress collagen formation by human IPF fibroblasts. For this purpose, TGFβ1-stimulated IPF lung fibroblasts were stimulated for 2 h with omipalisib, PI3Ki1, or FAPL-PI3Ki1, followed by replacement of the inhibitor-containing media with inhibitor-free growth media and continued incubation for 46 h. […] Importantly, this concurrent suppression of both mTOR and PI3K activity should be very beneficial to the desired therapy, since collagen synthesis associated with pathogenic fibrosis can be induced by both pathways.
Confluent IPF fibroblasts (4000 cells/well) were cultured in 96-well plates in DMEM containing 0.4% fetal calf serum, ascorbic acid (100 μM), and mixed Ficoll 70 and Ficoll 400 as molecular crowding agents. […]

COc1ncc(-c2ccc3nccc(-c4ccc(CO)nc4)c3c2)cc1NS(=O)(=O)c1ccc(F)cc1F [PI3Ki1]
inhibition of Akt phosphorylation on serine 473 (PI3K [1]): nearly complete inhibition
IC50 (PI3K [1]; Homo sapiens, HLF, TGFβ1 10 ng/mL, 24 h, read-out: IC50 of inhibition of phosphorylation of Akt): ~1 nM
IC50 [2]: ~10 nM
inhibition of TGFβ1 stimulated fibroblast contraction of a collagen gel (HLF): reduce TGFβ1 induced collagen remodeling
caspase activity (HLF cells; concentrations below 100 nM): weak induction of caspase activity
fibroblast apoptosis (caspase 3 and 7 activation) (HLF cells; increasing concentrations): only promoted fibroblast cell death at concentrations much higher than those required to prevent collagen synthesis
pAkt after short incubation and replacement with inhibitor-free media (PI3K [3]): no diminution in pAkt expression
biosynthesis of collagen (IPF fibroblasts): only moderately inhibited

COc1ncc(-c2ccc3nccc(-c4ccnnc4)c3c2)cc1NS(=O)(=O)c1ccc(F)cc1F [omipalisib, reference compound]
biosynthesis of collagen (IPF fibroblasts): only moderately inhibited
